Target: T1, human M1 receptor (hCHRM1) (Homo sapiens, UniProt P11229)
T1 construct: expressed in transfected cells; host or cells: CHO-K1
T1 sequence (P11229 1-460): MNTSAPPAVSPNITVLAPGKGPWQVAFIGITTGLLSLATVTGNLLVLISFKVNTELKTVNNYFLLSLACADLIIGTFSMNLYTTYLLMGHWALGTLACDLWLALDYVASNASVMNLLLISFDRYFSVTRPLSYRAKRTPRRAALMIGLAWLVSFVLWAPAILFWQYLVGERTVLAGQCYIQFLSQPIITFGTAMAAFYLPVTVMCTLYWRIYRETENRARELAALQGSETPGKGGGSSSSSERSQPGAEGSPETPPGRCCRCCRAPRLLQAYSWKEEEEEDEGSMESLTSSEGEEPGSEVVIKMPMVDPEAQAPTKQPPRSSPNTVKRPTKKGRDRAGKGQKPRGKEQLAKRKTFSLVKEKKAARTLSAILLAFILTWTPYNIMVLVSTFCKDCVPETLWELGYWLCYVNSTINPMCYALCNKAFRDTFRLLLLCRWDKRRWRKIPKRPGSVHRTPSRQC
Assay: Measurement of M1 receptor positive allosteric modulator (M1PAM) activity, calcium fluorescence (FLIPRtetra) in CHO-K1 cells in the presence of acetylcholine at EC20
Assay type: cell-based
Settings: in the presence of acetylcholine at EC20 (final 0.6 nM), CHO-K1 cells expressing hCHRM1; for EC50: inflection point of M1PAM activity, read-out: IP value; for activity (%) at 10 μM: test compound 10 μM
Summary of the method: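 PAM activity was measured as calcium flux by FLIPRtetra over 1 min after co-addition of compound and EC20 acetylcholine (final 0.6 nM) to Fluo-4-loaded hCHRM1 CHO-K1 cells. The response was scaled between DMSO (0%) and 1 μM acetylcholine (100%), and the inflection point of the concentration curve gives the IP value.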

| EC50 [nM] | activity (%) at 10 μM [%] | Compound |
| --- | --- | --- |
| 51 | 90 | COc1cccc(F)c1Oc1nccc2c1C(=O)N(Cc1ccc(-c3cn(C)nc3C)cc1)C2 [Example 357, 2-(4-(1,3-dimethyl-1H-pyrazol-4-yl)benzyl)-4-(2-fluoro-6-methoxyphenoxy)-1,2-dihydro-3H-pyrrolo[3,4-c]pyridin-3-one] |
| 40 | 97 | Cn1cc(-c2ccc(CN3Cc4ccnc(Oc5cc(CC#N)ccc5F)c4C3=O)cc2)cn1 [Example 406, (4-fluoro-3-((2-(4-(1-methyl-1H-pyrazol-4-yl)benzyl)-3-oxo-2,3-dihydro-1H-pyrrolo[3,4-c]pyridin-4-yl)oxy)phenyl)acetonitrile] |
| 39 | 101 | Cc1ccc(Oc2nccc3c2C(=O)N(Cc2ccc(-c4ccn(C)n4)cc2)C3)c(F)c1 [Example 420, 4-(2-fluoro-4-methylphenoxy)-2-(4-(1-methyl-1H-pyrazol-3-yl)benzyl)-1,2-dihydro-3H-pyrrolo[3,4-c]pyridin-3-one] |
| 48 | 86 | Cc1cc(-c2ccc(CN3Cc4ccnc(Oc5ccc(Cl)cc5F)c4C3=O)cc2)ccn1 [Example 383, 4-(4-chloro-2-fluorophenoxy)-2-(4-(2-methylpyridin-4-yl)benzyl)-1,2-dihydro-3H-pyrrolo[3,4-c]pyridin-3-one] |
| 10 | 100 | Cn1cc(-c2ccc(CN3Cc4ccnc(Oc5ccc(C(F)F)cc5F)c4C3=O)cc2)cn1 [Example 391, 4-(4-(difluoromethyl)-2-fluorophenoxy)-2-(4-(1-methyl-1H-pyrazol-4-yl)benzyl)-1,2-dihydro-3H-pyrrolo[3,4-c]pyridin-3-one] |
| 2.6 | 85 | Cc1nn(C)cc1-c1ccc(CN2Cc3ccnc(Oc4c(F)cc(C#N)cc4F)c3C2=O)cc1 [Example 385, 4-((2-(4-(1,3-dimethyl-1H-pyrazol-4-yl)benzyl)-3-oxo-2,3-dihydro-1H-pyrrolo[3,4-c]pyridin-4-yl)oxy)-3,5-difluorobenzonitrile] |
| 30 | 102 | Cn1cc(-c2ccc(CN3Cc4ccnc(Oc5ccc(Cl)cc5F)c4C3=O)cc2)cn1 [Example 388, 4-(4-chloro-2-fluorophenoxy)-2-(4-(1-methyl-1H-pyrazol-4-yl)benzyl)-1,2-dihydro-3H-pyrrolo[3,4-c]pyridin-3-one] |
| 25 | 95 | Cn1cc(-c2ccc(CN3Cc4ccnc(Oc5c(F)cccc5Cl)c4C3=O)cc2)cn1 [Example 397, 4-(2-chloro-6-fluorophenoxy)-2-(4-(1-methyl-1H-pyrazol-4-yl)benzyl)-1,2-dihydro-3H-pyrrolo[3,4-c]pyridin-3-one] |
| 26 | 95 | CCNC(=O)c1ccc(CN2Cc3ccnc(Oc4ccc(C)cc4F)c3C2=O)cc1 [Example 434, N-ethyl-4-((4-(2-fluoro-4-methylphenoxy)-3-oxo-1,3-dihydro-2H-pyrrolo[3,4-c]pyridin-2-yl)methyl)benzamide] |

The remaining lines, values behind:

| Compound | EC50 [nM] | activity (%) at 10 μM [%] |
| --- | --- | --- |
| O=C1c2c(cccc2Oc2c(F)cccc2Cl)CN1Cc1ccc(-c2ccnnc2)cc1 [Example 81, 7-(2-chloro-6-fluorophenoxy)-2-(4-(pyridazin-4-yl)benzyl)isoindolin-1-one] | 170 | 57 |
| O=C1c2c(ccc(F)c2O[C@H]2CCCC[C@@H]2O)CN1Cc1ccc(-n2cccn2)cc1 (relative stereo) [Example 228, 6-fluoro-7-((trans-2-hydroxycyclohexyl)oxy)-2-(4-(1H-pyrazol-1-yl)benzyl)isoindolin-1-one] | 94 | 118 |
| Cn1ccc(-c2ccc(CN3Cc4ccnc(O[C@H]5CCC[C@@H]5O)c4C3=O)cc2)n1 (relative stereo) [Example 237, 4-((trans-2-hydroxycyclopentyl)oxy)-2-(4-(1-methyl-1H-pyrazol-3-yl)benzyl)-1,2-dihydro-3H-pyrrolo[3,4-c]pyridin-3-one] | 23 | 108 |
| O=C1c2c(ccnc2O[C@H]2CCCC[C@@H]2O)CN1Cc1ccc(Br)s1 (relative stereo) [Example 400, 2-((5-bromo-2-thienyl)methyl)-4-((trans-2-hydroxycyclohexyl)oxy)-1,2-dihydro-3H-pyrrolo[3,4-c]pyridin-3-one] | 56 | 88 |
| Cn1cc(-c2ccc(CN3Cc4ccnc(OCC5CCC5)c4C3=O)c(F)c2)nn1 [Example 263, 4-(cyclobutylmethoxy)-2-(2-fluoro-4-(1-methyl-1H-1,2,3-triazol-4-yl)benzyl)-1,2-dihydro-3H-pyrrolo[3,4-c]pyridin-3-one] | 41 | 106 |
| CNC(=O)c1ccc(CN2Cc3ccnc(Oc4ccc(C5CC5)cc4F)c3C2=O)cc1 [Example 447, 4-((4-(4-cyclopropyl-2-fluorophenoxy)-3-oxo-1,3-dihydro-2H-pyrrolo[3,4-c]pyridin-2-yl)methyl)-N-methylbenzamide] | 5.2 | 93 |
| CCc1ccc(Oc2nccc3c2C(=O)N(Cc2ccc(C(N)=O)c(F)c2)C3)c(F)c1 [Example 445, 4-((4-(4-ethyl-2-fluorophenoxy)-3-oxo-1,3-dihydro-2H-pyrrolo[3,4-c]pyridin-2-yl)methyl)-2-fluorobenzamide] | 28 | 100 |
| Cc1nn(C)cc1-c1ccc(CN2Cc3cccc(O[C@@H]4COCC[C@H]4O)c3C2=O)cc1 [Example 251, 1,5-anhydro-2-deoxy-4-O-(2-(4-(1,3-dimethyl-1H-pyrazol-4-yl)benzyl)-3-oxo-2,3-dihydro-1H-isoindol-4-yl)-threo-pentitol] | 7.5 | 117 |
| Cc1nn(C)cc1-c1ccc(CN2Cc3ccnc(OC4CCc5cccnc54)c3C2=O)c(F)c1 (stereo not drawn) [Example 346, 4-(6,7-dihydro-5H-cyclopenta[b]pyridin-7-yloxy)-2-(4-(1,3-dimethyl-1H-pyrazol-4-yl)-2-fluorobenzyl)-1,2-dihydro-3H-pyrrolo[3,4-c]pyridin-3-one] | 2.1 | 85 |
| Cc1cc(-c2ccc(CN3Cc4ccnc(OCc5ccccc5F)c4C3=O)c(F)c2)cnn1 [Example 344, 4-((2-fluorobenzyl)oxy)-2-(2-fluoro-4-(6-methylpyridazin-4-yl)benzyl)-1,2-dihydro-3H-pyrrolo[3,4-c]pyridin-3-one] | 55 | 97 |
| Cc1nn(C)cc1-c1ccc(CN2Cc3cccc(O[C@H]4CCC[C@@H]4O)c3C2=O)cc1 (relative stereo) [Example 226, 2-(4-(1,3-dimethyl-1H-pyrazol-4-yl)benzyl)-7-((trans-2-hydroxycyclopentyl)oxy)isoindolin-1-one] | 30 | 98 |
| Cc1nn(C)cc1-c1ccc(CN2Cc3ccnc(O[C@@H]4CCC[C@H]4O)c3C2=O)cc1 (single isomer, unassigned) [Example 256, 2-(4-(1,3-dimethyl-1H-pyrazol-4-yl)benzyl)-4-((trans-2-hydroxycyclopentyl)oxy)-1,2-dihydro-3H-pyrrolo[3,4-c]pyridin-3-one] | 4 | 101 |
| Cn1cc(-c2ccc(CN3Cc4cccc(O[C@H]5CCCC(F)(F)[C@@H]5O)c4C3=O)cc2)cn1 (relative stereo) [Example 7, 7-((trans-3,3-difluoro-2-hydroxycyclohexyl)oxy)-2-(4-(1-methyl-1H-pyrazol-4-yl)benzyl)isoindolin-1-one] | 32 | 114 |
| Cn1ccc(-c2ccc(CN3Cc4ncnc(Oc5ccc(C#N)cc5F)c4C3=O)cc2)n1 [Example 371, 3-fluoro-4-((6-(4-(1-methyl-1H-pyrazol-3-yl)benzyl)-5-oxo-6,7-dihydro-5H-pyrrolo[3,4-d]pyrimidin-4-yl)oxy)benzonitrile] | 13 | 99 |
| CNC(=O)c1ccc(CN2Cc3ccnc(Oc4ccc(C)cc4F)c3C2=O)cc1F [Example 437, 2-fluoro-4-((4-(2-fluoro-4-methylphenoxy)-3-oxo-1,3-dihydro-2H-pyrrolo[3,4-c]pyridin-2-yl)methyl)-N-methylbenzamide] | 78 | 98 |
| Cc1cc(-c2ccc(CN3Cc4ccnc(OCC5CCOC5)c4C3=O)cc2)ccn1.Cl (stereo not drawn) [Example 266, 2-(4-(2-methylpyridin-4-yl)benzyl)-4-((tetrahydrofuran-3-yl)methoxy)-1,2-dihydro-3H-pyrrolo[3,4-c]pyridin-3-one hydrochloride] | 45 | 100 |
| 1,5-anhydro-2-deoxy-3-O-(3-oxo-2-(4-(1H-pyrazol-1-yl)benzyl)-2,3-dihydro-1H-isoindol-4-yl)-threo-pentitol [Example 239] | 6.1 | 109 |
| Cc1ccn(-c2ccc(CN3Cc4cccc(O[C@H]5CCCC[C@@H]5O)c4C3=O)cc2)n1 (relative stereo) [Example 32, 7-((trans-2-hydroxycyclohexyl)oxy)-2-(4-(3-methyl-1H-pyrazol-1-yl)benzyl)isoindolin-1-one] | 10 | 110 |
